Laboratory results: patent publication US20250236611A1, “PYRAZOLE COMPOUNDS AND USES THEREOF” (ALCON INC., priority 2021, published 2025)

How the values were obtained:
Assay type in all cases: biochemical
Details in all cases: 10 nM JAK enzyme, 800 nM Abl peptide, room temperature 75 min
JAK1 = JAK1 (Homo sapiens, UniProt P23458); experiment: JAK assay (KINASE-GLO luminescent kinase assay), JAK1
How it was run: (§1)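 The 2× mix gave 10 nM kinase, 800 nM Abl peptide and 2 µM DTT, and ATP was added as a 4× stock (2 µM), in HEPES pH 7.5 buffer. Compounds ran as an 11-point series, 100 µM–10 pM final in 2.5% DMSO, for 75 min at RT. Remaining ATP was read by luminescence against DMSO control, and 4-parameter IC50s were converted to Ki by Cheng-Prusoff.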

JAK2 = JAK2 (Homo sapiens, UniProt O60674); experiment: JAK assay (KINASE-GLO luminescent kinase assay), JAK2
Sequence of JAK2 (O60674 whole entry): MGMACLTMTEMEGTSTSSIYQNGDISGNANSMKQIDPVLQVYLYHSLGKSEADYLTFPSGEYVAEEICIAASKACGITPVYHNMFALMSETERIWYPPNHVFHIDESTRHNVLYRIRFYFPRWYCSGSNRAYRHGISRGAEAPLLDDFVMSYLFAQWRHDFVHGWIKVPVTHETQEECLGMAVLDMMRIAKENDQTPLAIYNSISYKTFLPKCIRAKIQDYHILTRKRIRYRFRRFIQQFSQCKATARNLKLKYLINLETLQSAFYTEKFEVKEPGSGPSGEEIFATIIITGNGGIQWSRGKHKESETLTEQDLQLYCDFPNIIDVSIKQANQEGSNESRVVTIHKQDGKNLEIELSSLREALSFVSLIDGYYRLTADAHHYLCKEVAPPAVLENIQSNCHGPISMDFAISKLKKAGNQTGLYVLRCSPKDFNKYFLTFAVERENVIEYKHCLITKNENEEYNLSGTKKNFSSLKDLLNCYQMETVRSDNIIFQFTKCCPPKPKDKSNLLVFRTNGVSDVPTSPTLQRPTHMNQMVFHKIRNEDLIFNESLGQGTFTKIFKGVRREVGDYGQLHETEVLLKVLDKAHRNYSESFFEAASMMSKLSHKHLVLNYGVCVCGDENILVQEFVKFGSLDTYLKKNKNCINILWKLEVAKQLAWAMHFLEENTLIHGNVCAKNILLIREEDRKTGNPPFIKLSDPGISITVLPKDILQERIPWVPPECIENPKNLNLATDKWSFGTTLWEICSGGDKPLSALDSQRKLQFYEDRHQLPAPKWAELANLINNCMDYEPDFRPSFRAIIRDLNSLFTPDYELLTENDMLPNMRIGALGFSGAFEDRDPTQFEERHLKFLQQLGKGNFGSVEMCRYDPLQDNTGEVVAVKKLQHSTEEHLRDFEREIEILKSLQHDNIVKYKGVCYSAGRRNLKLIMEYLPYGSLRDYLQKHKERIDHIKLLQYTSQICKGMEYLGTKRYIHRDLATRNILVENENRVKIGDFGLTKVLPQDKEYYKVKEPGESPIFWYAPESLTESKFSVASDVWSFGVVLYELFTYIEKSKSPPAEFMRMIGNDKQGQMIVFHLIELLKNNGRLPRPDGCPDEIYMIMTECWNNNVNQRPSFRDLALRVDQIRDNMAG
How it was run: as §1

JAK3 = target: T1, JAK3 (Homo sapiens, UniProt P52333); experiment: JAK assay (KINASE-GLO luminescent kinase assay), JAK3
T1 sequence (P52333 1-1124): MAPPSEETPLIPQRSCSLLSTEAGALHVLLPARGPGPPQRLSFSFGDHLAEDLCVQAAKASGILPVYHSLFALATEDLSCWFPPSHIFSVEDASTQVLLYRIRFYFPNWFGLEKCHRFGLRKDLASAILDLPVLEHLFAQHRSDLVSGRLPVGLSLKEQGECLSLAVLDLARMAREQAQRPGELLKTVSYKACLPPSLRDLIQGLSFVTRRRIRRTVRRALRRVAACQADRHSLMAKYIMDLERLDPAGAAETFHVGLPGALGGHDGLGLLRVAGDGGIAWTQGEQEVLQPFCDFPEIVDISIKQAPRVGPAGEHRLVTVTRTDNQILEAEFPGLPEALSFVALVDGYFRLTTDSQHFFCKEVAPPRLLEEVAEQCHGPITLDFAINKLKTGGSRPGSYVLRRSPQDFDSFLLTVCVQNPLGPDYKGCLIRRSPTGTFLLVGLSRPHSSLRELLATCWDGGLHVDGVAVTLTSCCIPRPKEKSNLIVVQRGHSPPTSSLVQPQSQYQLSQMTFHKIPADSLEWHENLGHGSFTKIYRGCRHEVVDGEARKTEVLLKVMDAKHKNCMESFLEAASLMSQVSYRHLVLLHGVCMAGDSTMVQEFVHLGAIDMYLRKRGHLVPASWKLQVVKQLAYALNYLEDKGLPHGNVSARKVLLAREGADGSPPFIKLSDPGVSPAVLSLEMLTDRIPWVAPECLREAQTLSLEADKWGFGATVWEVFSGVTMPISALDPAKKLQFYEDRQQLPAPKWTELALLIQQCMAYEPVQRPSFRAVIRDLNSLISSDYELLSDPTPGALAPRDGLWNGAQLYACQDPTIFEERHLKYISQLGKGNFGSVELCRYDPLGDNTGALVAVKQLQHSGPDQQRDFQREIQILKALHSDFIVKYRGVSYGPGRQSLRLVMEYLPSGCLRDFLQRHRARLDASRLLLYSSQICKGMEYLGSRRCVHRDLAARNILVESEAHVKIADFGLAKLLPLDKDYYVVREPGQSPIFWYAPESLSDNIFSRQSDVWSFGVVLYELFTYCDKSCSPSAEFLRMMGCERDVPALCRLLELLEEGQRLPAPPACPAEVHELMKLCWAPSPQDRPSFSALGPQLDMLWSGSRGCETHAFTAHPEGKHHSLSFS
How it was run: as §1

TYK2 = TYK2 (Homo sapiens, UniProt P29597); experiment: JAK assay (KINASE-GLO luminescent kinase assay), TYK2
Sequence of TYK2 (P29597 whole entry): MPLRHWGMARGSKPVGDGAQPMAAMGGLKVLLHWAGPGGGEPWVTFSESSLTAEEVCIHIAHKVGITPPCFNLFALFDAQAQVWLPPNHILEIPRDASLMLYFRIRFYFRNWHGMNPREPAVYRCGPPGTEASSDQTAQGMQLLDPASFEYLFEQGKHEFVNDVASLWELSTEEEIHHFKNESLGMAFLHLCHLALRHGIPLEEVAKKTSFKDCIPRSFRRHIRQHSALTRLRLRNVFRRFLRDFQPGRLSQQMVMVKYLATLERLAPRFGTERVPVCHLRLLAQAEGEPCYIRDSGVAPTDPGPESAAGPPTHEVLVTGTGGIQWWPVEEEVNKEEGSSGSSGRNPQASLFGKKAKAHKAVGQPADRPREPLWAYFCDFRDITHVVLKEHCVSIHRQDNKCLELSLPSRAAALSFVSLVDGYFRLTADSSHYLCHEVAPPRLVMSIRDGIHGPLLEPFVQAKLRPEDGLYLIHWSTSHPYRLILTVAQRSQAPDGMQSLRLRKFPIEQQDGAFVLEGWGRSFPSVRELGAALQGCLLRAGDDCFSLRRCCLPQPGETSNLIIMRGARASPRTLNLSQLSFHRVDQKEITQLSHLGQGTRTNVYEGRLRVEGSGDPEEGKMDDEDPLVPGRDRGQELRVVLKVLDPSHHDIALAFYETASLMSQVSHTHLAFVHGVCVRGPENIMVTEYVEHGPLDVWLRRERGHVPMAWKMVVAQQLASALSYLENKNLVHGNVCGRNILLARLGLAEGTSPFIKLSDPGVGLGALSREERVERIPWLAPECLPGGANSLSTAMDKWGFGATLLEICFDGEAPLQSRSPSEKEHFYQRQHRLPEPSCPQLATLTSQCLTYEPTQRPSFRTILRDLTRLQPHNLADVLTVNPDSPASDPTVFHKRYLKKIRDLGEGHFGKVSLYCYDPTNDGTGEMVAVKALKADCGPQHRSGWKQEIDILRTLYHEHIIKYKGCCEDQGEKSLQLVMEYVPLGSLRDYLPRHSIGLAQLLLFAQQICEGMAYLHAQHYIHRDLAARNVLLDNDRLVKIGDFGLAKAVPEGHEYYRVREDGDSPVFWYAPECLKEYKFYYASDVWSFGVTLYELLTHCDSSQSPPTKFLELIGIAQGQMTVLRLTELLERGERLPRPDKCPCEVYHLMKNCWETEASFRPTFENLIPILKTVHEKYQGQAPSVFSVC

Sequence of JAK1 (P23458 whole entry): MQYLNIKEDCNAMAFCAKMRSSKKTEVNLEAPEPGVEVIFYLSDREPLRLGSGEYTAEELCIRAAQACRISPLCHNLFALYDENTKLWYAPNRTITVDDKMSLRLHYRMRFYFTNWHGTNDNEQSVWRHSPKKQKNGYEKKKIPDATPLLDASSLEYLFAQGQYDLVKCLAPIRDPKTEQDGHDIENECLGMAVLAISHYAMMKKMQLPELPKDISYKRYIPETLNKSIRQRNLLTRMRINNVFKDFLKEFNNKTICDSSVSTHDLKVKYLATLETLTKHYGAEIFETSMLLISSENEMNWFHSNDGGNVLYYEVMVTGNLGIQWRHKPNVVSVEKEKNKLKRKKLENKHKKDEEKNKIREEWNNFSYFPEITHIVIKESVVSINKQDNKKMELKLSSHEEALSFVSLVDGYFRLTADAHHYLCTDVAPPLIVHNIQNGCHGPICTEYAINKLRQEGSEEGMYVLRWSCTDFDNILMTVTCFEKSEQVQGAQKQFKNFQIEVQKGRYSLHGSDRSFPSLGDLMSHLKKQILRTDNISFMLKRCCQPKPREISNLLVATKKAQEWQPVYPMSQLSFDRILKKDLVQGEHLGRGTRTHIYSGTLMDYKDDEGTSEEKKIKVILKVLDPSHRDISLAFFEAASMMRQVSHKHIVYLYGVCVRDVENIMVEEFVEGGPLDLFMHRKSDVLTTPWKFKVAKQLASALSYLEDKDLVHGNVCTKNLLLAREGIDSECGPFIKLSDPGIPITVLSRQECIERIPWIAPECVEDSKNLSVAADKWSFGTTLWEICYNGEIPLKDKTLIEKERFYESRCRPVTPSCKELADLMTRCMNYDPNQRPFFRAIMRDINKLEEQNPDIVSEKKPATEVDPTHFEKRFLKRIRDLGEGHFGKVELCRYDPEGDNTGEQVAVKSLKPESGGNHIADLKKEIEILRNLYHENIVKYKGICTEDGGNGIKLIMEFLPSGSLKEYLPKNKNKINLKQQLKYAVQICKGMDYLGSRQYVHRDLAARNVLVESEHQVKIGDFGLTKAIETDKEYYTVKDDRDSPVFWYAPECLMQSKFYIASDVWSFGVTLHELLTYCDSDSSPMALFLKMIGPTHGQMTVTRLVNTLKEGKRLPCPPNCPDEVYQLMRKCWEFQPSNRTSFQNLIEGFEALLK

| IC50 (JAK1) | IC50 (JAK2) | IC50 (JAK3) | IC50 (TYK2) | Structure (SMILES) |
| --- | --- | --- | --- | --- |
| < 100 nM | < 10 nM | < 10 nM | < 100 nM | COC(=O)c1cccc(Nc2ncc(Cl)c(-c3cnn(CCC#N)c3)n2)c1 [COC(═O)C1═CC═CC(═C1)NC2═NC] |
| < 100 nM | < 10 nM | < 10 nM | < 100 nM | Cn1cc(Nc2ncc(Cl)c(-c3cnn(CCC4CC4)c3)n2)cn1 [C[N]1C═C(NC2═NC(═C] |
| < 1000 nM | < 10 nM | < 1000 nM | < 1000 nM | Cn1ccc(Nc2ncc(Cl)c(-c3cnn(CCC#N)c3)n2)n1 [C[N]1C═CC(═N1)NC2═NC(═C] |
| > 50000 nM | < 100000 nM | > 50000 nM | > 50000 nM | CS(=O)(=O)N(c1ncc(Cl)c(-c2cnn(CCC#N)c2)n1)S(C)(=O)=O [C[S](═O)(═O)N(C1═NC(═C] |
| < 100000 nM | < 100000 nM | < 100000 nM | < 100000 nM | CS(=O)(=O)N(c1ncc(Cl)c(-c2cnn(CCC#N)c2)n1)S(C)(=O)=O [C[S](═O)(═O)NC1═NC(═C] |
| < 100 nM | < 10 nM | < 100 nM | < 100 nM | N#CC1(Cn2cc(-c3nc(Nc4ccns4)ncc3Cl)cn2)CCC1 [ClC1═C(N═C(NC2═CC═NS2)N═C1)C3═C[N]] |
| < 100000 nM | < 100000 nM | < 100000 nM | < 100000 nM | N#CCCn1cc(-c2nc(Nc3ccsc3)ncc2Cl)cn1 [ClC1═C(N═C(NC2═CSC═C2)N═C1)C3═C[N]] |
| > 50000 nM | < 100000 nM | > 50000 nM | > 50000 nM | N#CCCn1cc(-c2nc(NC3CCNCC3(F)F)ncc2Cl)cn1 (stereo not shown) [FC1(F)CNCCC1NC2═NC(═C] |
| < 100 nM | < 10 nM | < 10 nM | < 10 nM | N#CCCn1cc(-c2nc(Nc3cccc(CN4CC(F)C4)c3)ncc2Cl)cn1 [FC1CN(C1)CC2═CC═CC(═C2)NC3═NC(═C] |
| < 10 nM | < 10 nM | < 10 nM | < 10 nM | N#CCCn1cc(-c2nc(Nc3ccc(N4CCOCC4)c(F)c3)ncc2Cl)cn1 [FC1═CC(═CC═C1N2CCOCC2)NC3═NC(═C] |
| < 1000 nM | < 10 nM | < 100 nM | < 100 nM | N#CCCn1cc(-c2nc(Nc3ccc(N4CCOCC4)cc3F)ncc2Cl)cn1 [FC1═CC(═CC═C1NC2═NC(═C] |
| > 50000 nM | < 1000 nM | > 50000 nM | > 50000 nM | N#CCCn1cc(-c2nc(Nc3cc(C(F)(F)F)no3)ncc2Cl)cn1 [FC(F)(F)C1═NOC(═C1)NC2═NC(═C] |

Second part, the compound before the results:

| Structure (SMILES) | IC50 (JAK1) | IC50 (JAK2) | IC50 (JAK3) | IC50 (TYK2) |
| --- | --- | --- | --- | --- |
| Cc1cnc(Nc2cc(COC(=O)CCN(C)C)ns2)nc1-c1cnn(CC2(CF)CC2)c1 [CN(C)CCC(═O)OCC1═NSC(═C1)NC2═NC] | < 100 nM | < 10 nM | < 10 nM | < 10 nM |
| Cc1cnc(Nc2ccc(C(=O)NCCN(C)C)cc2)nc1-c1cnn(CC2(CF)CC2)c1 [CN(C)CCNC(═O)C1═CC═C(NC2═NC] | < 100 nM | < 10 nM | < 100 nM | < 10 nM |
| Cc1cnc(Nc2ccnc(OCCN(C)C)c2)nc1-c1cnn(CC2(CC#N)CC2)c1 [CN(C)CCOC1═CC(═CC═N1)NC2═NC(═C] | < 100 nM | < 10 nM | < 100 nM | < 100 nM |
| CNC1(Cn2cc(-c3nc(Nc4cc(C)ns4)ncc3Cl)cn2)CC1 [CNC1(CC1)C[N]2C═C(C═N2)C3═C] | < 100 nM | < 10 nM | < 10 nM | < 100 nM |
| CNC(=O)c1ccc(Nc2ncc(C)c(-c3cnn(CC4(CF)CC4)c3)n2)cc1 [CNC(═O)C1═CC═C(NC2═NC(═C] | < 10 nM | < 10 nM | < 10 nM | < 10 nM |
| CNC(=O)c1cccc(Nc2ncc(Cl)c(-c3cnn(CC4(NC)CC4)c3)n2)c1 [CNC(═O)C1═CC═CC(═C1)NC2═NC] | < 1000 nM | < 10 nM | < 100 nM | < 1000 nM |
| CNCc1cc(Nc2ncc(C)c(-c3cnn(CC4(CF)CC4)c3)n2)sn1 [CNCC1═NSC(═C1)NC2═NC(═C] | < 100 nM | < 10 nM | < 100 nM | < 100 nM |
| COC1(c2ccc(Nc3ncc(C)c(-c4cnn(CC5(CF)CC5)c4)n3)cc2)COC1 [COC1(COC1)C2═CC═C(NC3═NC(═C] | 1880 nM | < 100 nM | < 1000 nM | < 1000 nM |
| COc1cnc(Nc2cc(COC(=O)c3ccccc3)ns2)nc1-c1cnn(CC2(CF)CC2)c1 [COC1═C(N═C(NC2═CC(═NS2)COC] | < 100 nM | < 10 nM | < 100 nM | < 100 nM |
| COc1cnc(Nc2ccc(C3(O)COC3)cc2)nc1-c1cnn(CC2(CF)CC2)c1 [COC1═C(N═C(NC2═CC═C(C═C2)C3] | < 1000 nM | < 10 nM | < 100 nM | < 100 nM |
| COc1cnc(Nc2ccc(N3CCN(C)CC3)cc2)nc1-c1cnn(CC2(Cl)CC2)c1 [COC1═C(N═C(NC2═CC═C] | < 100 nM | < 10 nM | < 10 nM | < 100 nM |
| COc1ccc(Nc2ncc(C)c(-c3cnn(CC4(CF)CC4)c3)n2)cn1 [COC1═CC═C(NC2═NC(═C] | < 1000 nM | < 10 nM | < 100 nM | < 100 nM |
| COc1cc(Nc2ncc(C)c(-c3cnn(CC4(CF)CC4)c3)n2)sn1 [COC1═NSC(═C1)NC2═NC(═C] | < 100 nM | < 10 nM | < 100 nM | < 10 nM |
| COC(=O)c1cc(Nc2ncc(C)c(-c3cnn(CCC#N)c3)n2)ccc1N1CCOCC1 [COC(═O)C1═C(C═CC(═C1)NC2═NC(═C] | < 10 nM | < 10 nM | < 10 nM | < 10 nM |
| COC(=O)c1cc(Nc2ncc(C)c(-c3cnn(CCC#N)c3)n2)ccc1N1CCOCC1 [COC(═O)C1═CC(═CC═C1)NC2═NC(═C] | < 100 nM | < 10 nM | < 10 nM | < 100 nM |
| COC(=O)c1ccc(Nc2ncc(Cl)c(-c3cnn(CC4(C#N)CC4)c3)n2)cn1 [COC(═O)C1═NC═C(NC2═NC(═C] | < 1000 nM | < 10 nM | < 100 nM | < 100 nM |
| COCc1cc(Nc2ncc(C)c(-c3cnn(CC4(CF)CC4)c3)n2)sn1 [COCC1═NSC(═C1)NC2═NC(═C] | < 1000 nM | < 100 nM | < 1000 nM | < 1000 nM |
| COCCOc1ccc(Nc2ncc(C)c(-c3cnn(CC4(CF)CC4)c3)n2)cc1 [COCCOC1═CC═C(NC2═NC(═C] | < 100 nM | < 10 nM | < 100 nM | < 100 nM |
| COCCOCc1cc(Nc2ncc(C)c(-c3cnn(CC4(CF)CC4)c3)n2)sn1 [COCCOCC1═NSC(═C1)NC2═NC(═C] | < 1000 nM | < 1000 nM | < 1000 nM | < 1000 nM |
| Cc1cnc(Nc2ccc(CNC(=O)[C@H](C)N)cc2)nc1-c1cnn(CC2(CF)CC2)c1 [C[C@H](N)C(═O)NCC1═CC═C(NC2═NC] | < 100 nM | < 10 nM | < 100 nM | < 100 nM |
| Cc1cnc(Nc2ccc(CNC(=O)[C@H](C)NC(=O)OC(C)(C)C)cc2)nc1-c1cnn(CC2(CF)CC2)c1 [C[C@H](NC(═O)OC(C)(C)C)C] | < 100 nM | < 10 nM | < 100 nM | < 100 nM |
| Cc1cnc(Nc2cn(C)nn2)nc1-c1cnn(CC2(CF)CC2)c1 [C[N]1C═C(NC2═NC(═C(C)C═N2)C3═C[N]] | < 1000 nM | < 100 nM | < 1000 nM | < 1000 nM |
| Clc1cnc(Nc2cccc(CN3CCC3)c2)nc1 [ClC1═C(N═C(NC2═CC(═CC═C2)CN3CCC3)N═C1)] | < 100 nM | < 10 nM | < 10 nM | < 10 nM |
| Clc1cnc(NC23CC(C2)C3)nc1-c1cnn(Cc2cccs2)c1 [ClC1═C(N═C(NC23CC(C2)C3)N═C1)C4═C[N]] | > 50000 nM | > 50000 nM | < 100000 nM | > 50000 nM |
| N#CC1(Cn2cc(-c3nc(Nc4cnc5ccnn5c4)ncc3Cl)cn2)CCC1 [ClC1═C(N═C] | < 100000 nM | < 100 nM | < 1000 nM | < 1000 nM |
